From article PMC4109680, “Identification and Preclinical Pharmacology of the γ-Secretase Modulator BMS-869780” (International Journal of Alzheimer's Disease, 2014)

Columns and labels:
[1] = tested on: APP-CTF (H4-APPsw); test: Western blot of APP-CTFα and APP-CTFβ in H4-APPsw cell lysates; assay type: cell-based, human; details: overnight; for increase in APP-CTFα: BMS-869780 100-3000 nM averaged across doses, BMS-299897 30-300 nM; for APP-CTFβ levels: high concentrations
Description: For western blotting of APP-CTF in cell lysates, H4-APPsw cell cultures in T-75 flasks were rinsed with DPBS, harvested, isolated by centrifugation, and stored at −80°C until needed. Cells were suspended in SDS sample buffer (20,000 cells/μL), boiled for 10 min, and centrifuged 3000 ×g for 5 min. Total protein content was determined using an assay kit (EZQ, Invitrogen cat number R33200). Proteins were separated by electrophoresis on Bis-Tris 16% polyacrylamide gels and transferred to nitrocellulose filters. APP-CTFβ was detected using 26D6-HRP, and APP-CTFα was detected using ct695 polyclonal (Invitrogen, cat number 51-2700) and secondary goat anti-rabbit horseradish peroxidase conjugate (Zymed, catalog number 62-6120). Chemiluminescence images were captured and quantified using an imaging station (Fuji model number LAS-3000). The ct695 western blots also show APP-CTFβ, which migrates as a fainter band above APP-CTFα under these conditions. To confirm the consistency of sample loading, the APP-CTF western blots were reprobed for glyceraldehyde-3-phosphate dehydrogenase (GAPDH) using monoclonal 1D4 (Enzo Life Sciences, cat number CSA-335).
Figure 4 BMS-869780 had minimal effect on APP-CTF accumulation in vitro. H4-APPsw cell cultures were treated overnight with the indicated concentrations of BMS-869780, BMS-299897 or vehicle (0.1% DMSO). (a) Cells were harvested and analyzed by western blotting for APP-CTFα, APP-CTFβ, and GAPDH. Lane 1; culture treated with vehicle 0.1% DMSO. Lanes 2–5; cultures treated with BMS-869780 at 100 nM, 300 nM, 1000 nM, or 3000 nM, respectively. Lanes 6–8; cultures treated with BMS-299897 at 30 nM, 100 nM, or 300 nM, respectively. (b) Levels of Aβ1-42 (red; left Y-axis), Aβ1-40 (green; right Y-axis), and Aβ1-x (grey; right Y-axis) were quantified.

[2] = tested on: Aβ1-x (H4-APPsw); test: Aβ1-42, Aβ1-40 and Aβ1-x ELISA in H4-APPsw cultures at high concentrations; assay type: cell-based, human; details: overnight
Description: IC50 determinations for Aβ1-42 and Aβ1-40 in H4-APPsw cultures in 384-well format were determined using homogeneous time-resolved fluorescence immunoassays as previously described. The principle of these assays is illustrated in Figures 1(c) and 1(d). In other experiments using H4-APPsw cultures, Aβ was quantified by ELISA; for Aβ1-42 the combination of monoclonal antibodies was 26D6 and 565-HRP; for Aβ1-40 it was TSD and 26D6-HRP, and for Aβ1-x it was 4G8 and 26D6-HRP. In some experiments a novel 4-plex Aβ electrochemiluminescence immunoassay was used (Mesoscale Discovery catalog number N45ZA-1). […] For Aβ in transiently transfected PS1/PS2 dKO fibroblasts, Aβ1-42 was quantified using an ELISA kit (WACO), and Aβ1-40 was quantified by ELISA as described above for H4-APPsw cultures. […] For the rat and mouse experiments illustrated in Figures 7 and 8, brain samples were prepared by solid phase extraction, and endogenous rat brain Aβ1-42 and Aβ1-40 were quantified by ELISA as previously described for wild type mice. […] For brain extracts made in 0.2% diethylamine, Aβ1-42, Aβ1-40, Aβ1-38, and Aβ1-37 concentrations in brain and cell culture samples were determined by fitting the results of immunoassays against calibration curves derived from a range of dilutions of the corresponding synthetic peptides on each assay plate using a quadratic curve fit (Graphpad Prizm 5.0). […]

Row | SMILES | increase in APP-CTFα [1] [fold] | APP-CTFβ levels [1] | overall levels of Aβ1-x [2]
1 | C[C@H](c1ccc(F)cc1CCCC(=O)O)N(c1cc(F)ccc1F)S(=O)(=O)c1ccc(Cl)cc1 [BMS-299897, reference compound] | 8 | not affected | dramatically reduced all Aβ1-x peptides
2 | COc1cc(Nc2nc3n(n2)CCCC[C@H]3c2ccc(F)cc2)ccc1-n1cnc(Cl)c1 [BMS-869780] | 1.4 | not affected | without any decrease in the overall levels of Aβ1-x
